From US20240245705A1, “ORALLY ADMINISTERED COMBINATIONS OF AMOXICILLIN AND AVIBACTAM DERIVATIVES FOR TREATING MYCOBACTERIAL INFECTIONS” (Arixa Pharmaceuticals, Inc., priority 2019, published 2024)
Counter-ions that a name gives are not always drawn.

How the values were obtained:
[1] = human, avibactam itself given orally; cited from earlier work
[2] = Single ascending dose phase 1 study: pharmacokinetics of avibactam after oral avibactam derivative (3) in healthy human volunteers; type: in vivo; conditions: following oral administration of avibactam derivative (3)
Protocol: The pharmacokinetics of avibactam provided as an orally administered avibactam derivative was determined on healthy human volunteers.
A randomized, double-blind, placebo-controlled single ascending dose phase 1 study was undertaken with healthy male and female adults. Three cohorts, each comprising 10 patients received a single oral dose of 300 mg, 900 mg, or 1,350 mg avibactam derivative (3) (ethyl 3-(((((1R,2S,5R)-2-carbamoyl-7-oxo-1,6-diazabicyclo[3.2.1]octan-6-yl)oxy)sulfonyl)oxy)-2,2-dimethylpropanoate) under fed conditions as a suspension of 10 mg/mL (n=8) or placebo (n−2).
Plasma and urine PK samples were collected prior to dosing and at frequent intervals after dosing.

[3] = Avibactam oral bioavailability in humans; type: in vivo; conditions: human patients, oral avibactam derivative
Text: Avibactam derivatives, when orally administered, provide an enhanced oral bioavailability of the β-lactamase inhibitor compared to the oral bioavailability of the parent β-lactamase inhibitor. […] The oral bioavailability of avibactam in a human is about 7%.

| SMILES | oral bioavailability of avibactam [1] | clearance of avibactam in the systemic compartment [2] | avibactam oral bioavailability [3] |
| --- | --- | --- | --- |
| NC(=O)[C@@H]1CC[C@@H]2CN1C(=O)N2OS(=O)(=O)O [avibactam, [2S,5R]-2-carbamoyl-7-oxo-1,6-diazabicyclo[3.2.1]octan-6-yl hydrogen sulfate] | about 7% | – | – |
| CCOC(=O)C(C)(C)COS(=O)(=O)ON1C(=O)N2C[C@H]1CC[C@H]2C(N)=O [avibactam derivative (3), ethyl 3-(((((1R,2S,5R)-2-carbamoyl-7-oxo-1,6-diazabicyclo[3.2.1]octan-6-yl)oxy)sulfonyl)oxy)-2,2-dimethylpropanoate] | – | rapid clearance | greater than 50 % F |
